Values quoted from earlier work as cited in patent US20100234288A1, “SUSTAINED RELEASE PHARMACEUTICAL COMPOSITION ON THE BASIS OF RELEASE SYSTEM COMPRISING AN ACID-SOLUBLE POLYMER AND A pH-DEPENDENT POLYMER” (PANACEA BIOTEC LTD, priority 2006, published 2010).

- time to reach peak plasma concentrations (after oral administration): 6 to 8 h
- effect of food on absorption (presence of food, gastrointestinal absorption): doubles the absorption
SMILES: O=C1Cc2cc(CCN3CCN(c4nsc5ccccc45)CC3)c(Cl)cc2N1 [Ziprasidone, 5-[2-[4-(1,2-benzisothiazol-3-yl)-1-piperazinyl]ethyl]-6-chloro-1,3-dihydro-2H-indol-2-one]
